Paper PMC9312238, “Novel Organoselenium Redox Modulators with Potential Anticancer, Antimicrobial, and Antioxidant Activities” (Antioxidants, 2022)
In brackets after ≈: the same amount, converted by molar mass.

How the values were obtained:
[1] = ABTS radical scavenging bioassay; type: biochemical
Description: (§1) The antioxidant activity was estimated by ABTS and DPPH bioassays, according to the reported literature method. More details are in the Supplementary Materials.
(§2) Recently, OSe compounds were thoroughly used as redox modulators to control many complicated diseases (e.g., cancer and neurodegenerative diseases). The DPPH and ABTS bioassays were extensively used as rapid tools for estimating the antioxidant potency of OSe compounds [50, 51]. Ascorbic acid was used as a standard control, and the antioxidant potency was measured by the ability of the compounds to decolorize the characteristic colors of the ABTS^. and DPPH^. radicals by following the colorimetric decline in absorbance at 734 and 517 nm, respectively (Figure 2).
(§3) Figure 2 Evaluation of the antioxidant properties of the OSe compounds employing the ABTS and DPPH assays. All measurements are mean ± SD. In the DPPH assay: absorbance was read after 0.5 h of mixing […] of DPPH with […] of OSe compounds (1 mM, MeOH) at 517 nm. In the ABTS assay: […] of each OSe compound (1 mM, phosphate-buffered methanol) was mixed with the ABTS solution (60 mM), and absorbance was monitored at 734 nm.
The antioxidant activity of the investigated compounds was assessed using 2,2’-az-ino-bis(3-ethylbenzothiazoline-6-sulphonic acid (ABTS) method. The radical cation derived from ABTS was prepared by the reaction of 60 mM ABTS solution with 0.3 M manganese dioxide solution in 0.1M phosphate buffer, pH 7. Then, the mixture was shaken, centrifuged, filtered, and the absorbance (Acontrol) of the resulting green-blue solu-tion (ABTS radical solution) was measured at wavelength 734 nm. Then, […] of 1 mg/ml test compound in phosphate-buffered methanol was added. The absorbance (Atest) was measured. The reduction in color intensity was expressed as % inhibition. The % inhibi-tion for each compound is calculated from the following equation
Inhibition% = (Acontrol-Asample)/(Acontrol)*100
Ascorbic acid (vitamin C) was used as a standard antioxidant (positive control). A blank sample was run without ABTS and using MeOH/phosphate buffer (1:1) instead of the sample. A negative control sample was run with MeOH/phosphate buffer (1:1) instead

[2] = DPPH radical scavenging bioassay; type: biochemical
Description: as §1, §2
as §3, with “734 nm. […]” for “734 nm.”
1.1.1. The antioxidant activity
The hydrogen atom or electron donation ability of the corresponding compounds was measured by estimating the bleaching of the purple color of a methanolic solution of DPPH [29]. This spectrophotometric assay uses stable DPPH. reagent. The sample was prepared by adding […] of the OSe compounds (1 mM in methanol) to […] DPPH in methanol. After 30 min of incubation in the dark, the absorbance was read against a blank at 517 nm. Ascorbic acid (vitamin C) and ebselen were used as standard antioxi-dants (positive control). A blank sample was run without DPPH. A negative control sam-ple was run using methanol instead of the sample. The radical scavenging activity was calculated using the following equation:
(§4) Inhibition%= (Ablank-Asample)/(Ablank)*100. (1)

Candida albicans [3] = assay: MIC by microdilution, C. albicans; type: cell-based; details: Candida albicans; microdilution; read-out: MIC (μM) C. albicans
Procedure: The antimicrobial activities of the OSe compounds were evaluated against C. albicans yeast, as well as E. coli and S. bacteria, employing the agar well diffusion assay. Furthermore, the MICs (in µM) were determined by the microdilution method according to the reported protocol. More details are in the Supporting Information. […]
(§5) 1.1.1. The antimicrobial activity
The antimicrobial activities of the OSe compounds were evaluated against C. albicans yeast as well as E. coli gram-negative and S. aureus gram-positive bacteria employing the agar well diffusion assay. Briefly, a concentration of 1 mM was prepared for each compound by dissolving in DMSO. Paper discs of standard size […] were steri-lized in an autoclave and soaked in 20 µL of the test compounds, and placed in the Petri dishes, which in turn contain a nutrient media (agar 20 g, peptone 5 g, and beef extract 3 g) seeded with the dedicated strain. Incubation lasted for 24 h at 36
(§6) Furthermore, the MICs (in µM) were determined by the microdilution method according to the reported protocol. […]
as §4

Candida albicans [4] = assay: microbe, parasite or virus in culture; type: cell-based; design: C. albicans A% (activity index): concentration or dose not given beside the values
Procedure: The antimicrobial activities of the OSe compounds were evaluated against C. albicans yeast, as well as E. coli and S. bacteria, employing the agar well diffusion assay. Furthermore, the MICs (in µM) were determined by the microdilution method according to the reported protocol. More details are in the Supporting Information.
Compounds were evaluated for their antimicrobial activity against the Gram-negative bacteria Escherichia coli (E. coli) and the Gram-positive bacteria Staphylococcus aureus (S. aureus), as well as the Candida albicans (C. albicans) fungal strain, using the agar diffusion assay. Ampicillin and clotrimazole were used as standards. Indeed, the antimicrobial properties of the OSe compounds were also obtained from the activity index percentage (A%) according to Equation (2). (2) A%=Zone of inhibition by test compound diametre/Zone of inhibition by standard diametre×100 . […]
as §5
The antimicrobial activities of the OSe compounds were evaluated against C. albicans yeast as well as E. coli gram-negative and S. aureus gram-positive bacteria employing the agar well diffusion assay. […]
compound by dissolving in DMSO. […]
Petri dishes, which in turn contain a nutrient media (agar 20 g, peptone 5 g, and beef extract 3 g) seeded with the dedicated strain. Incubation lasted for 24 h at 36
as §6, §4

[5] = concentration decreasing absorbance by 50%

## O=C1O[C@H]([C@@H](O)CO)C(O)=C1O [Vitamin C, Ascorbic acid, reference compound]
[1]; compound 1 mM in phosphate-buffered methanol, 734 nm
  radical scavenging activity, ABTS assay: 88%
[1]; [5]
  IC50: 28.16 ± 0.19 µM
[2]; compound 1 mM in MeOH, read after 0.5 h at 517 nm
  radical scavenging activity, DPPH assay: 95%
[2]; [5]
  IC50: 19.18 ± 0.13 µM

## Clc1ccccc1C(c1ccccc1)(c1ccccc1)n1ccnc1 [Clotrimazole, clotrimazole, reference compound]
Candida albicans [3]
  MIC: 2 µM (≈ 0.69 µg/mL)
Candida albicans [4]; Candida albicans, inhibition zone diameter, six-mm disks soaked with 20 μM of compound, read-out: C. albicans IZD (mm)
  zone of inhibition at 20 µM: 24 mm
Candida albicans [4]; zone of test compound / zone of standard (clotrimazole) x 100
  C. albicans A% (activity index): 100%
